Toxic doses and inconclusive results are not listed. How the source made its calls: active means survival T/C of 150% or more; inactive means T/C below 125% in these data.
System: CD2F1 mice, L1210 leukemia ip, survival T/C
Assay: NCI In Vivo Anticancer Drug Screen. Data for tumor model L1210 Leukemia (intraperitoneal) in CD2F1 (CDF1) mice
Settings: endpoint: mean survival time, higher = longer survival
Outline: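 Mice carrying a transplanted tumor received test compound or vehicle alone. The value is the measurement in the treated group divided by that in the vehicle-treated control group.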

[1] = dose: 100.0 mg/kg/injection, schedule: Q04DX003 (ip), vehicle: saline with Tween-80
[2] = dose: 200.0 mg/kg/injection, schedule: Q04DX003 (ip), vehicle: saline with Tween-80
[3] = dose: 400.0 mg/kg/injection, schedule: Q04DX003 (ip), vehicle: saline with Tween-80
[4] = dose: 100.0 mg/kg/injection, schedule: Q04DX003 (ip), vehicle: saline
[5] = dose: 200.0 mg/kg/injection, schedule: Q04DX003 (ip), vehicle: saline
[6] = dose: 400.0 mg/kg/injection, schedule: Q04DX003 (ip), vehicle: saline
[7] = dose: 100.0 mg/kg/injection, schedule: Q01DX001 (ip), vehicle: saline with Tween-80
[8] = dose: 200.0 mg/kg/injection, schedule: Q01DX001 (ip), vehicle: saline with Tween-80
[9] = dose: 400.0 mg/kg/injection, schedule: Q01DX001 (ip), vehicle: saline with Tween-80
[10] = dose: 100.0 mg/kg/injection, schedule: Q01DX001 (ip), vehicle: saline
[11] = dose: 200.0 mg/kg/injection, schedule: Q01DX001 (ip), vehicle: saline
[12] = dose: 400.0 mg/kg/injection, schedule: Q01DX001 (ip), vehicle: saline

Measured: T/C

CN(C)/C=N/NC(=O)c1ccccc1O
inactive: [1] 98 % of control | [2] 100 % of control | [3] 100 % of control

Oc1cc(O)c2c(c1)OC(c1ccc(O)c(O)c1)C(O)C2c1c(O)cc(O)c2c1OC(c1ccc(O)c(O)c1)C(O)C2 (stereo not given)
inactive: [4] 107 % of control | [5] 95 % of control | [6] 104 % of control

c1ccc(NC2=NCCO2)nc1
inactive: [7] 101 % of control | [8] 100 % of control

N#CCc1[nH]nc2ncnc(N)c12
inactive: dose: 12.5 mg/kg/injection, schedule: Q01DX005 (ip), vehicle: water 100 % of control | dose: 25.0 mg/kg/injection, schedule: Q01DX005 (ip), vehicle: water 100 % of control | dose: 50.0 mg/kg/injection, schedule: Q01DX005 (ip), vehicle: water 105 % of control | dose: 100.0 mg/kg/injection, schedule: Q01DX005 (ip), vehicle: water 105 % of control

Cc1cc(CCl)c(C)cc1CCl
inactive: dose: 6.25 mg/kg/injection, schedule: Q04DX003 (ip), vehicle: saline with Tween-80 91 % of control | dose: 12.5 mg/kg/injection, schedule: Q04DX003 (ip), vehicle: saline with Tween-80 91 % of control | dose: 25.0 mg/kg/injection, schedule: Q04DX003 (ip), vehicle: saline with Tween-80 87 % of control | [1] 98 % of control

CCOC(=O)c1c[nH]c([O-])c1[N+]#N
inactive: [7] 94 % of control | dose: 100.0 mg/kg/injection, schedule: Q04DX002 (ip), vehicle: saline with Tween-80 100 % of control | [8] 96 % of control | dose: 200.0 mg/kg/injection, schedule: Q04DX002 (ip), vehicle: saline with Tween-80 107 % of control | [9] 91 % of control | dose: 400.0 mg/kg/injection, schedule: Q04DX002 (ip), vehicle: saline with Tween-80 103 % of control

CCCC(=O)Nc1ccc([N+](=O)[O-])cc1OC
inactive: [1] 96 % of control | [2] 102 % of control | [3] 104 % of control

CC(C)(C)N1OC1c1ccccc1 (stereo not given)
inactive: [10] 103 % of control | [11] 105 % of control | [12] 97 % of control

COc1cc2ccc3c4cc5c(cc4c[n+](C)c3c2cc1OC)OCO5
inactive: dose: 10.0 mg/kg/injection, schedule: Q01DX009 (ip), vehicle: Klucel (hydroxypropylcellulose) (HPC) 119 % of control | dose: 20.0 mg/kg/injection, schedule: Q01DX009 (ip), vehicle: Klucel (hydroxypropylcellulose) (HPC) 119 % of control | dose: 40.0 mg/kg/injection, schedule: Q01DX009 (ip), vehicle: Klucel (hydroxypropylcellulose) (HPC) 121 % of control | dose: 80.0 mg/kg/injection, schedule: Q01DX009 (ip), vehicle: Klucel (hydroxypropylcellulose) (HPC) 115 % of control | dose: 160.0 mg/kg/injection, schedule: Q01DX009 (ip), vehicle: Klucel (hydroxypropylcellulose) (HPC) 97 % of control

COC/C=N/N(C)C
inactive: dose: 75.0 mg/kg/injection, schedule: Q01DX001 (ip), vehicle: saline 100 % of control | dose: 150.0 mg/kg/injection, schedule: Q01DX001 (ip), vehicle: saline 96 % of control

CCOC(=O)C1CC1C#N (stereo not given)
inactive: [1] 102 % of control | [2] 98 % of control | [3] 97 % of control

CC1=CCCC(C)C2CC(C(C)(C)O)CC12 (stereo not given)
inactive: [10] 93 % of control | [11] 91 % of control | [12] 95 % of control

CC1CCCC(C)N1C1=NCCO1 (stereo not given)
inactive: dose: 5.0 mg/kg/injection, schedule: Q04DX003 (ip), vehicle: saline 102 % of control | dose: 10.0 mg/kg/injection, schedule: Q04DX003 (ip), vehicle: saline 97 % of control | dose: 20.0 mg/kg/injection, schedule: Q04DX003 (ip), vehicle: saline 94 % of control

O=C1CCCC1=P(c1ccccc1)(c1ccccc1)c1ccccc1
inactive: dose: 100.0 mg/kg/injection, schedule: Q04DX003 (ip), vehicle: other 99 % of control | dose: 200.0 mg/kg/injection, schedule: Q04DX003 (ip), vehicle: other 90 % of control

O=[N+]([O-])c1ccc2[nH]ncc2c1
inactive: [7] 103 % of control | [8] 92 % of control | [9] 100 % of control

O=C(Nc1ccc(Cl)c(Cl)c1)OCC#CCOC(=O)Nc1ccc(Cl)c(Cl)c1
inactive: [4] 95 % of control | [5] 95 % of control | [6] 91 % of control

CC12CCC(C/C1=N\O)C2(C)C (stereo not given)
inactive: dose: 12.5 mg/kg/injection, schedule: Q01DX009 (ip), vehicle: saline with Tween-80 106 % of control | dose: 25.0 mg/kg/injection, schedule: Q01DX009 (ip), vehicle: saline with Tween-80 97 % of control | dose: 50.0 mg/kg/injection, schedule: Q01DX009 (ip), vehicle: saline with Tween-80 102 % of control

Source: PubChem BioAssay AID256 (DTP/NCI, 2004)
